Values quoted from earlier work, collected in patent US6340480B1, “Natural composition for the treatment of circulatory conditions” (priority 1998, dated 2002).

Test system: Activated Macrophages
Conditions: for killing certain tumor cells; literature study

Q: With `CC(C)=CCC[C@](C)(O[C@@H]1O[C@H](CO)[C@@H](O)[C@H](O)[C@H]1O)[C@H]1CC[C@]2(C)[C@@H]1[C@H](O)C[C@@H]1[C@@]3(C)CC[C@H](O)C(C)(C)[C@@H]3[C@@H](O[C@@H]3O[C@H](CO)[C@@H](O)[C@H](O)[C@H]3O)C[C@]12C` [RG1] as the compound, how does the “production of NO” value read?
A: enhances the production of NO
